# Species on record: Rattus norvegicus
# Assay: Open TG-GATES - Regimen: Single
# Assay type: toxicity, organism-based, Sprague-Dawley
# Parameters: regimen Single, gender Male, age 6 weeks
# Settings: in vivo, po, route gavage; for APTT / Bas / Eos / Fbg / Ht / Lym / MCHC / MCV / Mono / PT / Plat / RBC / Ret / WBC: tissue Blood; for KIDNEY_L / KIDNEY_R / KIDNEY_TOTAL: tissue Kidney; for LIVER: tissue Liver
# [1] = 10 mg/kg, 24 h, tissue Plasma, dose level Low
# [2] = 30 mg/kg, 3 h, dose level Middle
# [3] = 30 mg/kg, 3 h, tissue Plasma, dose level Middle
# [4] = 30 mg/kg, 6 h, dose level Middle
# [5] = 30 mg/kg, 6 h, tissue Plasma, dose level Middle
# [6] = 30 mg/kg, 9 h, dose level Middle
# [7] = 30 mg/kg, 9 h, tissue Plasma, dose level Middle
# [8] = 30 mg/kg, 24 h, dose level Middle
# [9] = 30 mg/kg, 24 h, tissue Plasma, dose level Middle
smiles,measurement,setting,value
CN(C)CCCN1c2ccccc2CCc2ccccc21 [IMIPRAMINE],TP,[1],5.4 g/dL
same,gamma-GTP,[1],1 IU/L
same,TERMINAL_BW,[2],202.2 g
same,APTT,[2],16.3 s
same,Bas,[2],0.2%
same,Eos,[2],1%
same,Fbg,[2],313 mg/dL
same,Ht,[2],42.7%
same,Lym,[2],78.8%
same,MCHC,[2],32.4%
same,MCV,[2],65.8 fL
same,Mono,[2],3%
same,PT,[2],15.6 s
same,Plat,[2],106.2 x10_4/uL
same,RBC,[2],651.2 x10_4/ul
same,Ret,[2],8.1%
same,WBC,[2],75.9 x10_2/uL
same,KIDNEY_L,[2],0.9 g
same,KIDNEY_R,[2],0.9 g
same,KIDNEY_TOTAL,[2],1.8 g
same,LIVER,[2],9.5 g
same,ALT,[3],43.4 IU/L
same,AST,[3],70.2 IU/L
same,BUN,[3],7.8 mg/dL
same,CRE,[3],0.1 mg/dL
same,DBIL,[3],0.008 mg/dL
same,GLC,[3],191.6 mg/dL
same,IP,[3],9.1 mg/dL
same,K,[3],4 meq/L
same,LDH,[3],88.4 IU/L
same,RALB,[3],2.6 g/dL
same,TBIL,[3],0.058 mg/dL
same,TC,[3],79.2 mg/dL
same,TP,[3],5.6 g/dL
same,gamma-GTP,[3],1 IU/L
same,TERMINAL_BW,[4],198.5 g
same,APTT,[4],16.1 s
same,Bas,[4],0%
same,Eos,[4],1%
same,Fbg,[4],311.6 mg/dL
same,Ht,[4],41.9%
same,Lym,[4],72.6%
same,MCHC,[4],32.7%
same,MCV,[4],63.9 fL
same,Mono,[4],3.2%
same,PT,[4],15.7 s
same,Plat,[4],122.8 x10_4/uL
same,RBC,[4],656 x10_4/ul
same,Ret,[4],7.6%
same,WBC,[4],81.3 x10_2/uL
same,KIDNEY_L,[4],0.9 g
same,KIDNEY_R,[4],0.9 g
same,KIDNEY_TOTAL,[4],1.8 g
same,ALP,[5],1270.6 IU/L
same,ALT,[5],40.2 IU/L
same,AST,[5],72.8 IU/L
same,BUN,[5],6.2 mg/dL
same,CRE,[5],0.1 mg/dL
same,DBIL,[5],0.01 mg/dL
same,GLC,[5],177.4 mg/dL
same,IP,[5],9.8 mg/dL
same,K,[5],4.1 meq/L
same,LDH,[5],138.2 IU/L
same,RALB,[5],2.5 g/dL
same,TBIL,[5],0.062 mg/dL
same,TC,[5],81.2 mg/dL
same,TP,[5],5.4 g/dL
same,gamma-GTP,[5],1.4 IU/L
same,TERMINAL_BW,[6],197.4 g
same,APTT,[6],15.4 s
same,Bas,[6],0%
same,Eos,[6],1%
same,Fbg,[6],290.8 mg/dL
same,Ht,[6],42.1%
same,Lym,[6],78.4%
same,MCHC,[6],32.5%
same,MCV,[6],65.8 fL
same,Mono,[6],1.8%
same,PT,[6],15.8 s
same,Plat,[6],111.8 x10_4/uL
same,RBC,[6],639.4 x10_4/ul
same,Ret,[6],7.8%
same,WBC,[6],69.2 x10_2/uL
same,KIDNEY_L,[6],0.9 g
same,KIDNEY_R,[6],1 g
same,KIDNEY_TOTAL,[6],1.9 g
same,LIVER,[6],8.4 g
same,ALP,[7],1205.4 IU/L
same,ALT,[7],35.8 IU/L
same,AST,[7],65.2 IU/L
same,BUN,[7],5.8 mg/dL
same,CRE,[7],0.1 mg/dL
same,DBIL,[7],0.01 mg/dL
same,GLC,[7],191 mg/dL
same,IP,[7],9.6 mg/dL
same,K,[7],4.1 meq/L
same,LDH,[7],64.6 IU/L
same,PL,[7],131.2 mg/dL
same,RALB,[7],2.5 g/dL
same,TBIL,[7],0.06 mg/dL
same,TC,[7],68 mg/dL
same,TP,[7],5.3 g/dL
same,gamma-GTP,[7],0.8 IU/L
same,TERMINAL_BW,[8],209.9 g
same,APTT,[8],16.1 s
same,Bas,[8],0%
same,Eos,[8],1%
same,Fbg,[8],298.2 mg/dL
same,Ht,[8],41.7%
same,Lym,[8],82%
same,MCHC,[8],32.6%
same,MCV,[8],64.6 fL
same,Mono,[8],2.4%
same,PT,[8],16.5 s
same,Plat,[8],119.3 x10_4/uL
same,RBC,[8],644.8 x10_4/ul
same,Ret,[8],7.6%
same,WBC,[8],75.5 x10_2/uL
same,KIDNEY_L,[8],0.9 g
same,KIDNEY_R,[8],0.9 g
same,KIDNEY_TOTAL,[8],1.8 g
same,LIVER,[8],9.2 g
same,ALP,[9],1509.8 IU/L
same,ALT,[9],45.6 IU/L
same,AST,[9],69.6 IU/L
same,CRE,[9],0.2 mg/dL
same,GLC,[9],177 mg/dL
same,IP,[9],7.8 mg/dL
same,K,[9],4.2 meq/L
same,LDH,[9],101.8 IU/L
same,RALB,[9],2.7 g/dL
same,TBIL,[9],0.06 mg/dL
same,TC,[9],85.2 mg/dL
same,TP,[9],5.6 g/dL
same,gamma-GTP,[9],1 IU/L
